Results taken from patent US20030153081A1, “Viral core protein-cationic lipid-nucleic acid-delivery complexes” (priority 1999, published 2003).

Key:
ND7 cells [1] = test: X-gal staining, cationic lipid variations in ND7 cells; assay type: cell-based, rat/mouse; conditions: ND7, Liposome:DNA 3:1 w/w
Protocol: We determined whether LMD complexes could be bettered by incorporating poly cationic cholesterol lipids (WO 97/45442). CDAN (B198), ACHx (CJE52) and CTAP (B232) (FIG. 9) were used to make cationic liposomes in place of DC-Chol. Each cationic liposome system used was composed of 60 mol % of cationic lipid and 40 mol % of DOPE and prepared as described in Example 4. The following different LMD complex systems were prepared and compared: LMD(DC-Chol), LMD(B198), LMD(CJE52), and LMD(B232). All LMD systems were prepared with cationic liposomes (total lipid 20 μmol) and 0.6 mg of Mu1 peptide per 1.0 mg of DNA (pCMVβ), as described above.
Liposome:DNA (LD) complex mixtures (lipoplexes) were prepared for control experiments with a Liposome:DNA ratio of 3:1 (w/w), the optimal composition for transfection of ND7 cells.
Transfection in ND7 cells; ND7 cells were seeded in NGM (with 10% serum) at a density of approximately 4×10^4 cells per well, in a 24-well culture plate. After 24 h, cells were washed by brief exposure to NGM (serum free) and then treated with solutions containing LMD or LD complexes, prediluted with NGM (serum free) (final DNA concentration 2.5 μg/ml in all cases), for 1 h. Cells were then washed again and incubated for a further 48 h prior to processing for histochemical staining with X-gal. The number of cells stained blue were counted under an inverted microscope.

ND7 cells [2] = test: β-galactosidase reporter gene assay, transfection of undifferentiated ND7 cells; assay type: cell-based, rat/mouse; conditions: peptide with cationic liposome, pCMVβ:liposome 1:3 w/w
Protocol: ND7 cells were seeded at a density of 5 ×10^4 cells/well in 24 well culture dishes 24 hrs prior to transfection. Immediately prior to transfection, cells were washed in serum-free media. Complexes were formed by incubating pCMVβ with Mu1 prior to the addition of the cationic liposome DC-Chol/DOPE. In each case 1 μg pCMVβ was complexed with 0.6, 6, 12, and 21 μg Mu1 peptide. Each of these combinations was then complexed with 3, 4 and 6 μg DC-Chol/DOPE. ND7 cells were exposed to transfection complexes for 2 hours then maintained at 37° C., 5% CO2 for another 24 hrs before being harvested and processed for β-galactosidase enzyme assay. Numbers represent means±SD, n=3.
pCMVβ plasmid DNA was complexed to various amounts of polycationic peptide and then mixed with cationic liposome at a ratio of 1:3 (pCMVβ:liposome; w/w). After being washed briefly in serum free media, ND7 cells were exposed to the […] complexes for two hours and then returned to serum containing media Twenty-four hours later the cells were harvested and processed for β-galactosidase enzyme assay. Each condition was performed in triplicate and each experiment replicated three times. Numbers represent means±SD.
ND7s are a well-characterized cell line derived from the fusion of a neuroblastoma N18Tg2) with neonatal rat sensory neurons ^28. The cell line was maintained in normal growth media (NGM) (Leibovitz's L-15 media (BRL) enriched with 10% Fetal bovine serum (BRL), 4 g/L glucose, 4 g/L sodium bicarbonate (BRL), 100 IU/mL penicillin/streptomycin (BRL)) at 37° C. and 5% CO2. The cells were plated onto 24 well plates (Costar) at a density that produced 70% confluence after 24 hours.
Since initial experiments determined that the presence of fetal bovine serum inhibited transfection of ND7 cells serum-free differentiation media was used for all transfections. Various amounts of DNA and liposome were placed in the bottom of a 7 mL sterile Bijou container (Bibby Sterilin Ltd., Staffordshire, U.K.), but not in contact with each other.
DNA and liposomes were combined by the addition of 400 μL serum-free differentiation media and gentle shaking. The DNA: liposome mixture was incubated at room temperature for 20 to 30 minutes before being applied to the cells. The DNA/liposome mixture was then applied to the cells and incubated at 37° C., 5% CO2 for 2 hours after which this media was replaced with complete media Twenty four to 48 hours later the cells were fixed and processed for X-gal histochemistry as described ^31 or harvested for β-galactosidase enzyme assays (Promega Corp.).
Transfection complexes including the test peptides were generated in the following manner. Various amounts of peptide was placed in the bottom of sterile polystyrene containers alongside, but not in contact with 1 μg·pCMVβ and mixed by adding 400 μl serum free NGM media The complexes were incubated at room temperature for 10 minutes after which DC-Chol/DOPE was added. The pDNA/peptide/liposome complex was further incubated at room temperature for 20 minutes and then administered to cells as above.
We examined the ability of Mu1 and Vp1 to enhance the transfection of a neuronal cell line by cationic liposomes using a β-Galactosidase reporter gene assay. ND7 cells were transfected with pCMVβ complexed to varying amounts of peptide and DC-Chol/DOPE. We have previously shown that the cationic liposome DC-Chol/DOPE is capable of efficiently transfecting the neuronally derived ND7 cell line ^31. […] Temporally, maximal levels of transgene expression are obtained between 48-60 hours post transfection. Therefore, in order to maximize the chance of detecting improvements in transfection we performed all our assays within 12-20 hours of transfection at a time when levels of reporter gene expression were lower. Previously we found a pDNA: liposome ratio of 1:3 (w/w) optimal for transfections in ND7 cells ^31. […]

[3] = charge ratios worked out from the sequence; assay type: physicochemical
Text: Mu1 is a polycationic peptide comprised of 19 amino acids associated with the core complex of Adenovirus (Table 1) ^27, 32. We compared the DNA binding capacity of Mu1 with the mouse polyomavirus major capsid protein Vp1 by interaction with plasmid DNA in a gel retardation assay. Vp1 is a 19 amino acid peptide that contains a nuclear localization signal ^26 and contains fewer positively charged amino acids than Mu1. It was therefore predicted to have a lower DNA binding capacity.
The success of non-viral gene delivery vehicles as viable alternatives to virus vector-based systems is dependent on the development of complexes with higher and longer lasting transfection efficiencies. Since the initial identification of cationic liposomes as vehicles for the transfer of genetic material into cells there has been a large push to develop better cationic liposome formulations ^5, 7. Most attempts at improving cationic liposomes have been based on structural modifications to the molecule itself ^30. Novel formulations have been developed which have improved transfection efficiencies ^30. However, particular cell types behave differently in regards to cationic liposomal transfection. For example, we found the polypeptide Mu1 better at enhancing cationic liposome mediated transfection than Vp1. This was probably due to Mu1's greater charge ratio. While both peptides are approximately the same molecular weight, the overall charge ratio of Mu1 was more than twice that of Vp1 (Table 1). […] While a small shift in pDNA mobility was detected when 0.25 μg Mu1 was complexed to 1 μg pCMVβ, almost all of the plasmid was retained near the loading well following addition of 0.5 μg Mu1 (FIG. 1). A 0.5/1.0 (w/w) ratio of Mu1 to pCMVβ corresponds to a 1000/1 molar ratio. Each molecule of Mu1 contains 12 residues that could potentially carry a positive charge. The theoretical charge ratio of Mu1 to pCMVβ would then be 1.6 (12000 Mu1 cations to 7500 pCMVβ anions).

plasmid DNA (pCMVβ) = test: gel retardation assay (DNA binding analysis)
Protocol: One microgram of pCMVβ was incubated with 0 μg (lane 2), 5 μg (lane 3), 10 μg (lane 4), 15 μg (lane 5), 20 μg (lane 6), 25 μg (lane 7) and 30 μg (lane 8) of BSA for 10 minutes at room temperature in 1× HBS. Samples were then analyzed on a 1% agarose gel for altered mobility.
When ratios of 0.5 (w/w) or greater were used, however, migration of both forms of pDNA was severely retarded.
C). The Polyomavirus protein Vp1 was much less efficient at preventing pDNA migration. pCMVβ (1 μg) was incubated with 2 μg (lane 2), 4 μg (lane 3), 6 μg (lane 4), 8 μg (lane 5), 16 μg (lane 6), 32 μg (lane 7) and 0 μg (lane 8) Vp1. Only ratios of 6 or higher (protein: pDNA, w/w) caused significant retardation of supercoiled pDNA (lane 6, lower band). Also, not until a ratio of 32 (w/w) was used was there any effect on relaxed pDNA (lane 7, upper band). In all gels lane 1 corresponds to 1 Kb DNA marker (BRL).
The purified peptides were reconstituted in sterile distilled H2O at 3 mg/mL. Peptide and pDNA were complexed in 20 μL HEPES buffered saline (137 mM NaCl, 5 mM KCl, 0.75 mM Na2HPO4, 19 mM HEPES, pH 7.4) for 20 minutes at room temperature. Peptide: pDNA complexes were subsequently analyzed by agarose gel electrophoresis (1%). Control incubations for general macromolecular pDNA interactions were performed with varying amounts of molecular biology grade purified bovine serum albumin (Sigma).
Varying amounts of purified peptide were incubated at room temperature in HBS for approximately 10 minutes and then analyzed by agarose gel electrophoresis. Without the addition of peptide, supercoiled and relaxed circular plasmid DNA (pDNA) migrated in the expected manner (FIG. 1, lane 8).

HeLa cells = test: β-galactosidase assay, alternative cationic peptides in HeLa cells; assay type: cell-based, human; conditions: DC-Chol:DOPE liposome:peptide:DNA 12:0.6:1, 30 min, DNA 1.0 μg/ml
Protocol: In order to examine the effects of various alternative cationic peptides on transfection activities, a series of liposome:cationic peptide:DNA complexes were prepared and their relative transfection abilities analysed in vitro. The peptides used were poly-lysine hydrochloride (average molecular weight 3970, Sigma), poly arginine hydrochloride (average molecular weight 11800, Sigma) a peptide derived from protein V, pV (p5, sequence shown below), a peptide analogue of Mu1 (V, sequence shown below) and Mu1 peptide itself. The p5 peptide and V peptide were synthesized using the same solid-phase peptide synthesis methodology as was used to prepare Mu1 peptide.
Each peptide was combined with cationic liposome (DC-Chol:DOPE 3:2 m/m) and DNA (pCMVβ) in the liposome:peptide:DNA ratio of 12:0.6:1 (w/w/w) as described in Example 4. The transfection activities were examined using HeLa cells (human epithelial cells). The cells were seeded at an approximate density of 5×10^4 per well in a 24-well culture plate in DMEM supplemented with 10% FCS and grown for 24 h in the presence of 5% CO2 at 37° C. Cells were washed by brief exposure to DMEM and then treated with solutions containing LMD or LD complexes, prediluted with OPTIMEM (Gibco) (final DNA concentration 1.0 μg/ml in all cases), for 30 min. Cells were then washed again and incubated for a further 48 h in DMEM supplemented with 10% FCS prior to harvesting. The level of β-galactosidase enzyme activity was determined with a standard assay kit (chemiluminescent, Roche).

For CC(C)CCCC(C)C1CCC2C3CC=C4CC(OC(=O)NCCNCCCNCCN)CCC4(C)C3CCC12C (stereo not drawn) [B198], the “rank order in transfection efficiency, corresponding LD systems” value (ND7 cells [1]) was “B198>DC-Chol>B232”.
With “NH2—Met—Ala—Pro—Lys—Arg—Lys—Ser—Gly—Val—Ser—Lys—Cys—Glu—Thr—Lys—Cys—Thr—Pro—Pro—OH (H-MAPKRKSGVSKCETKCTPP-OH; cysteine pairing not given here) [Vp1, 19 amino acid peptide of mouse polyomavirus major capsid protein Vp1, contains a nuclear localization signal, reference compound]” the “improvement on transfection efficiency” value (ND7 cells [2]) was “no improvement on transfection efficiency”, the Charge/AA ratio [3] was 0.26 and the “ratio protein:pDNA at which there was first any effect on relaxed pDNA” value (plasmid DNA (pCMVβ); 1 μg pCMVβ, 1% agarose gel) was 32 w/w. For the same compound, the “ratio protein:pDNA causing significant retardation of supercoiled pDNA” value (plasmid DNA (pCMVβ); 1 μg pCMVβ, 1% agarose gel) was ≥ 6 w/w and the “effect on electrophoretic mobility of plasmid DNA” value (plasmid DNA (pCMVβ); pDNA:protein ratios up to 1:8 (w/w)) was “no effect on the electrophoretic mobility”.
With “RPRRRATTRRRTTTGTRRRRRRR [p5, peptide derived from protein V, pV]” the “transfection activity compared to poly lysine and poly arginine complexes” value (HeLa cells) was “excellent transfection activity”.
For “VRRVHHRRRRVSHRRVRGG [peptide analogue of Mu1]”, the “transfection activity compared to poly lysine and poly arginine complexes” value (HeLa cells) was “excellent transfection activity”.
For CC(C)CCC[C@@H](C)[C@H]1CC[C@H]2[C@@H]3CC=C4C[C@@H](OC(=O)NCCN(C)C)CC[C@]4(C)[C@H]3CC[C@]12C [DC-Chol, 3β[N-(N′,N′-dimethylaminoethane)carbamoyl] cholesterol, reference compound], the “rank order in transfection efficiency, corresponding LD systems” value (ND7 cells [1]) was “B198>DC-Chol>B232”.
